According to patent US8324186B2, “4-azetidinyl-1-heteroatom linked-cyclohexane antagonists of CCR2” (Janssen Pharmaceutica N.V., priority 2009, dated 2012):

Molecular target: T1, CCR2 (Homo sapiens, UniProt P41597)
T1 construct: host or cells: THP-1 human monocytic cells
Test: MCP-1 Receptor Binding Assay in THP-1 Cells (125I-MCP-1 displacement)
Conditions: 0.5 nM 125I labeled MCP-1, 2 hours at 30° C., read-out: CCR2 Binding, Inhibition of MCP-1 Binding IC50
Experimental: Compounds of the invention were subjected to various representative biological tests. The results of these tests are intended to illustrate the invention in a non-limiting fashion. MCP-1 Receptor Binding Assay in THP-1 Cells
Human monocytic cell line THP-1 cells were obtained from American Type Culture Collection (Manassas, Va., USA). The THP-1 cells were grown in RPMI-1640 (RPMI: Roswell Park Memorial Institute Medium-cell culture growth media) supplemented with 10% fetal bovine serum in a humidified 5% CO2 atmosphere at 37° C. The cell density was maintained […].
THP-1 (cells were incubated with 0.5 nM ^125I labeled MCP-1 (Perkin-Elmer Life Sciences, Inc. Boston, Mass.) in the presence of varying concentrations of either unlabeled MCP-1 (R & D Systems, Minneapolis, Minn.) or test compound for 2 hours at 30° C. in a 96 well plate. Cells were then harvested onto a filter plate, dried, and 20 μL of Microscint 20 was added to each well. Plates were counted in a TopCount NXT, Microplate Scintillation & Luminescence Counter (Perkin-Elmer Life Sciences, Inc. Boston, Mass.). Blank values (buffer only) were subtracted from all values and drug treated values were compared to vehicle treated values. 1 μM cold MCP-1 was used for nonspecific binding.
Table 1 lists IC50 values for inhibition of MCP-1 binding to CCR2 obtained for test compounds of the invention. Where an IC50 value was not obtained for a particular compound, the percent inhibition is provided at a test concentration of 25 μM.

T1 sequence (P41597 whole entry): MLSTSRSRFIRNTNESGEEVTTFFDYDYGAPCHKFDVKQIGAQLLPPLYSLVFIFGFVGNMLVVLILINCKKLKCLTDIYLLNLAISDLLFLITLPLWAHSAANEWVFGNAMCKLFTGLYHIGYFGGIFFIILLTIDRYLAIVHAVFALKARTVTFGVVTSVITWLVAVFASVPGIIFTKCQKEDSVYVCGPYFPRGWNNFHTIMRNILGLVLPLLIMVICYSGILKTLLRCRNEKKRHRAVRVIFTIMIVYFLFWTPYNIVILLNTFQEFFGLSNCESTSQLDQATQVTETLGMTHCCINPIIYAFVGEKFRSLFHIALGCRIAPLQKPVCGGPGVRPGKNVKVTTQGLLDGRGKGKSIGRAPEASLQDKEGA

Compound | IC50
O=C(CNC(=O)c1cccc(C(F)(F)F)c1)NC1CN(C2CCC(n3ccccc3=O)CC2)C1 (single isomer, unassigned) [Example 1a, N-({1-[4-(2-Oxo-2H-pyridin-1-yl)-cyclohexyl]-azetidin-3-ylcarbamoyl}-methyl)-3-trifluoromethyl-benzamide] | 130 nM
O=C(CNC(=O)c1cccc(C(F)(F)F)c1)NC1CN(C2CCC(Oc3ccccn3)CC2)C1 (single isomer, unassigned) [Example 2a, N-({1-[4-(Pyridin-2-yloxy)-cyclohexyl]-azetidin-3-ylcarbamoyl}-methyl)-3-trifluoromethyl-benzamide] | 230 nM
O=C(CNC(=O)c1cccc(C(F)(F)F)c1)NC1CN(C2CCC(Oc3ncc(Br)cn3)CC2)C1 (single isomer, unassigned) [Example 5a, N-({1-[4-(5-Bromo-pyrimidin-2-yloxy)-cyclohexyl]-azetidin-3-ylcarbamoyl}-methyl)-3-trifluoromethyl-benzamide] | 24000 nM
O=C(CNC(=O)c1cccc(C(F)(F)F)c1)NC1CN(C2CCC(n3cnccc3=O)CC2)C1 (single isomer, unassigned) [Example 6a, N-({1-[4-(6-Oxo-6H-pyrimidin-1-yl)-cyclohexyl]-azetidin-3-ylcarbamoyl}-methyl)-3-trifluoromethyl-benzamide] | 380 nM
O=C(CNC(=O)c1cccc(C(F)(F)F)c1)NC1CN(C2CCC(Oc3ccncn3)CC2)C1 (single isomer, unassigned) [Example 7a, N-({1-[4-(Pyrimidin-4-yloxy)-cyclohexyl]-azetidin-3-ylcarbamoyl}-methyl)-3-trifluoromethyl-benzamide] | 2700 nM
O=C(CNC(=O)c1cccc(C(F)(F)F)c1)NC1CN(C2CCC(n3cc(I)ccc3=O)CC2)C1 (single isomer, unassigned) [Example 8a, N-({1-[4-(5-Iodo-2-oxo-2H-pyridin-1-yl)-cyclohexyl]-azetidin-3-ylcarbamoyl}-methyl)-3-trifluoromethyl-benzamide] | 430 nM
Cc1ccc(OC2CCC(N3CC(NC(=O)CNC(=O)c4cccc(C(F)(F)F)c4)C3)CC2)nc1 (single isomer, unassigned) [Example 12a, N-({1-[4-(5-Methyl-pyridin-2-yloxy)-cyclohexyl]-azetidin-3-ylcarbamoyl}-methyl)-3-trifluoromethyl-benzamide] | 820 nM
COc1cccn(C2CCC(N3CC(NC(=O)CNC(=O)c4cccc(C(F)(F)F)c4)C3)CC2)c1=O (single isomer, unassigned) [Example 13a, N-({1-[4-(3-Methoxy-2-oxo-2H-pyridin-1-yl)-cyclohexyl]-azetidin-3-ylcarbamoyl}-methyl)-3-trifluoromethyl-benzamide] | 100 nM
O=C(CNC(=O)c1cccc(C(F)(F)F)c1)NC1CN(C2CCC(n3ccc(O)cc3=O)CC2)C1 (single isomer, unassigned) [Example 15a, N-({1-[4-(4-Hydroxy-2-oxo-2H-pyridin-1-yl)-cyclohexyl]-azetidin-3-ylcarbamoyl}-methyl)-3-trifluoromethyl-benzamide] | 5400 nM
Cc1cccn(C2CCC(N3CC(NC(=O)CNC(=O)c4cccc(C(F)(F)F)c4)C3)CC2)c1=O (single isomer, unassigned) [Example 18a, N-({1-[4-(3-Methyl-2-oxo-2H-pyridin-1-yl)-cyclohexyl]-azetidin-3-ylcarbamoyl}-methyl)-3-trifluoromethyl-benzamide] | 330 nM
O=C(CNC(=O)c1cccc(C(F)(F)F)c1)NC1CN(C2CCC(n3cc(C(F)(F)F)ccc3=O)CC2)C1 (single isomer, unassigned) [Example 21a, N-({1-[4-(2-Oxo-5-trifluoromethyl-2H-pyridin-1-yl)-cyclohexyl]-azetidin-3-ylcarbamoyl}-methyl)-3-trifluoromethyl-benzamide] | 6500 nM
O=C(CNC(=O)c1cccc(C(F)(F)F)c1)NC1CN(C2CCC(n3cc(Cl)ccc3=O)CC2)C1 (single isomer, unassigned) [Example 22a, N-({1-[4-(2-Oxo-5-chloro-2H-pyridin-1-yl)-cyclohexyl]-azetidin-3-ylcarbamoyl}-methyl)-3-trifluoromethyl-benzamide] | 1100 nM
O=C(CNC(=O)c1cccc(C(F)(F)F)c1)NC1CN(C2CCC(N3C(=O)c4ccccc4C3=O)CC2)C1 (single isomer, unassigned) [Example 24a, N-({1-[4-(1,3-Dioxo-1,3-dihydro-isoindol-2-yl)-cyclohexyl]-azetidin-3-ylcarbamoyl}-methyl)-3-trifluoromethyl-benzamide] | 680 nM
O=C(CNC(=O)c1cccc(C(F)(F)F)c1)NC1CN(C2CCC(Oc3noc4ccccc34)CC2)C1 (single isomer, unassigned) [Example 25a, N-({1-[4-(Benzo[d]isoxazol-3-yloxy)-cyclohexyl]azetidin-3-ylcarbamoyl}-methyl)-3-trifluoromethyl-benzamide] | 340 nM
O=C(CNC(=O)c1cccc(C(F)(F)F)c1)NC1CN(C2CCC(n3oc4ccccc4c3=O)CC2)C1 (single isomer, unassigned) [Example 26a, N-({1-[4-(3-Oxo-3H-benzo[d]isoxazol-2-yl)-cyclohexyl]-azetidin-3-ylcarbamoyl}-methyl)-3-trifluoromethyl-benzamide] | 95 nM
Cc1cnn(C2CCC(N3CC(NC(=O)CNC(=O)c4cccc(C(F)(F)F)c4)C3)CC2)c1 (single isomer, unassigned) [Example 27a, N-({1-[4-(4-Methyl-pyrazol-1-yl)-cyclohexyl]-azetidin-3-ylcarbamoyl}-methyl)-3-trifluoromethyl-benzamide] | 170 nM
C[Si](C)(C)C#Cc1cnn(C2CCC(N3CC(NC(=O)CNC(=O)c4cccc(C(F)(F)F)c4)C3)CC2)c1 (single isomer, unassigned) [Example 29a, 3-Trifluoromethyl-N-({1-[4-(4-trimethylsilanylethynyl-pyrazol-1-yl)-cyclohexyl]-azetidin-3-ylcarbamoyl}-methyl)-benzamide] | 21 nM
C#Cc1cnn(C2CCC(N3CC(NC(=O)CNC(=O)c4cccc(C(F)(F)F)c4)C3)CC2)c1 (single isomer, unassigned) [Example 30a, N-({1-[4-(4-Ethynyl-pyrazol-1-yl)-cyclohexyl]-azetidin-3-ylcarbamoyl}-methyl)-3-trifluoromethyl-benzamide] | 88 nM
O=C(CNC(=O)c1cccc(C(F)(F)F)c1)NC1CN(C2CCC(n3ccnc3)CC2)C1 (single isomer, unassigned) [Example 31a, N-{[1-(4-Imidazol-1-yl-cyclohexyl)-azetidin-3-ylcarbamoyl]-methyl}-3-trifluoromethyl-benzamide] | 340 nM
O=C(CNC(=O)c1cccc(C(F)(F)F)c1)NC1CN(C2CCC(n3ncc4ccccc43)CC2)C1 (single isomer, unassigned) [Example 32a, N-{[1-(4-Indazol-1-yl-cyclohexyl)-azetidin-3-ylcarbamoyl]-methyl}-3-trifluoromethyl-benzamide] | 510 nM
O=C(CNC(=O)c1cccc(C(F)(F)F)c1)NC1CN(C2CCC(Oc3nsc4ccccc34)CC2)C1 (single isomer, unassigned) [Example 34a, N-({1-[4-(Benzo[d]isothiazol-3-yloxy)-cyclohexyl]-azetidin-3-ylcarbamoyl}-methyl)-3-trifluoromethyl-benzamide] | 290 nM
O=C(CNC(=O)c1cccc(C(F)(F)F)c1)NC1CN(C2CCC3(CC2)OC(=O)c2ccccc23)C1 (single isomer, unassigned) [Example 38a] | 920 nM
O=C(CNC(=O)c1cccc(C(F)(F)F)c1)NC1CN(C2CCC3(CC2)NC(=O)c2ccccc23)C1 (single isomer, unassigned) [Example 39a] | 1500 nM
O=C(CNC(=O)c1cccc(C(F)(F)F)c1)NC1CN(C2CCC3(CC2)OC(=O)Nc2ccccc23)C1 (single isomer, unassigned) [Example 40a] | 2200 nM
O=C(CNC(=O)c1cccc(C(F)(F)F)c1)NC1CN(C2CCC3(CC2)OCc2ccccc23)C1 (single isomer, unassigned) [Example 41a, N-[(1-3′H-Spiro[cyclohex-1,1′-isobenzofuran]-4-yl-azetidin-3-ylcarbamoyl)-methyl]-3-trifluoromethyl-benzamide] | 80 nM
O=C(CNC(=O)c1cccc(C(F)(F)F)c1)NC1CN(C2CCC(n3cc(Br)cnc3=O)CC2)C1 (stereo not shown) [Example 3, N-({1-[4-(5-Bromo-2-oxo-2H-pyrimidin-1-yl)-cyclohexyl]-azetidin-3-ylcarbamoyl}-methyl)-3-trifluoromethyl-benzamide] | 2200 nM
O=C(CNC(=O)c1cccc(C(F)(F)F)c1)NC1CN(C2CCC(n3cccnc3=O)CC2)C1 (stereo not shown) [Example 4, N-({1-[4-(2-Oxo-2H-pyrimidin-1-yl)-cyclohexyl]-azetidin-3-ylcarbamoyl}-methyl)-3-trifluoromethyl-benzamide] | 5900 nM
C#Cc1ccc(=O)n(C2CCC(N3CC(NC(=O)CNC(=O)c4cccc(C(F)(F)F)c4)C3)CC2)c1 (stereo not shown) [Example 9, N-({1-[4-(5-Ethynyl-2-oxo-2H-pyridin-1-yl)-cyclohexyl]-azetidin-3-ylcarbamoyl}-methyl)-3-trifluoromethyl-benzamide] | 1600 nM
